Appearance of solution data for one molecule are collected here from patent US9421269B2, “Saponin nano micelle, preparing method, application and pharmaceutical composition thereof” (FUJIAN SOUTH PHARMACEUTICAL CO., LTD, priority 2013, dated 2016).

The nature of the series: appearance of drug-loading micelle solution versus contrast sample. Type of series: physicochemical. The conditions noted are these: in 10 ml absolute ethanol.

Regarding `Oc1ccc(C=Cc2cc(O)cc(O)c2)cc1` [resveratrol], the appearance of solution entry is “murky”.
